Reference: PMC8373983, “Effect of salinity on the zinc(II) binding efficiency of siderophore functional groups and implications for salinity tolerance mechanisms in barley” (Scientific Reports, 2021)
Values joined by “and” are separate entries in the source; they are usually repeats but may differ in a detail not shown here. Equal entries are not always repeated. Marks after values point to notes of the source that are not given here.

How the values were obtained:
[1] = Zinc(II)-ligand stability constants, potentiometric titration in NaCl; type: binding; settings: for decrease in the 1:1 zinc(II) stability constant / decrease of the 1:1 zinc(II) stability constant: between 0.00 and 1.00 M NaCl
Method: (§1) Potentiometric measurements were carried out at T = 298.1 ± 0.1 K in thermostatted cells. The setup consisted of a Metrohm model 888 Titrando apparatus controlled by Metrohm TiAMO 1.2 software equipped with a combined gel electrode (VWR model 662 1759). Estimated precision was 0.2 mV and 0.003 ml for the electromotive force and titrant volume readings, respectively. All the potentiometric titrations were carried out under magnetic stirring and bubbling purified presaturated N2 through the solution to exclude O2 and CO2.
(§2) A 30 ml solution containing each ligand ([L] = 5 – 10 mM), NaCl and HCl was titrated with standard NaOH solutions. For the zinc(II)/ligand systems, the titrant solutions consisted of different amounts of ligand ([L] = 5 − 10 mM), zinc(II) ([Zn] = 0.5—5 mM) and a suitable amount of HCl and NaCl. All the measurements were carried out with an excess of the ligand, with respect to zinc(II) and at different zinc(II):ligand molar ratios. The selection of ratios investigated was determined by simulating titrations using Hyperquad Simulation and Speciation computer software (HySS)[41]. [Zn] and [L] were negligible compared to the background electrolyte concentrations. […] To account for the influence of zinc(II) hydrolysis in the zinc(II)/ligand systems, zinc(II) titrations were carried out separately at each ionic strength to determine the hydroxide constants so that these constants could be included in the equilibrium model used to refine the titration data. In these titrations, the zinc(II) concentration in the analyte solution was 0.7 mM.
(§3) Before each experiment, independent titrations of strong acid solutions with standard base were carried out under the same medium and ionic strength conditions as the systems to be investigated, with the aim of determining the electrode potential (E^0’) using GLEE software. In this way, the pH scale used was the […], pH = -log [H]^+, where [H]^+ is the free proton concentration. For each titration, approximately 80 to 100 data points were collected. The equilibrium state during titrations was checked by confirming the time required to reach equilibrium.
(§4) The software program Hyperquad was used to determine the equilibrium model and to calculate pKa and stability constants from the potentiometric data set[43]. For each set of pKa constants or zinc(II):ligand ratio studied, at least two repeat titrations were performed. The titration curves for each system were treated as a single set when refining the stability constants. This meant that the refinement procedure was run on both curves at the same time to derive a single set of constants. The error reported on the stability constants is the standard deviation given in the Hyperquad output file. Examples of Hyperquad files for the zinc(II)/PYR system are provided on the Zenodo repository (https://doi.org/10.5281/zenodo.4641710).
(§5) The ionic strength dependence of the stability constants was studied with the modified version of the Extended Debye–Hückel equation[28]. The Monte Carlo method, as described by Hu et al.[43], was used to estimate 95% confidence intervals on the parameters of ionic strength dependence; for each species, predicted stability constants were resampled using an inverse of the cumulative normal distribution function to give sets of simulated data from which the unknown parameters were optimized. An example Excel calculation file for the application of the modified version of the Extended Debye–Hückel equation to the zinc(II)/PYR system (including the calculation of error on parameters of ionic strength dependence) has been uploaded to the Zenodo repository (https://doi.org/10.5281/zenodo.4641710).
(§6) To quantify the improvement of using a direct vs. indirect method for studying ionic strength dependence, the Davies equation (Eq. 3) was applied to the zinc(II)/PYR data. Speciation calculations for a [Zn] = 10^–6 M and [L] = 10^–5 M system at infinite dilution were conducted with the aid of HySS. […]

[2] = Ligand protonation constants, potentiometric titration in NaCl; type: physicochemical
Method: as §1, §2, §3, §4, §5, §6

[3] = intrinsic, modified Extended Debye–Hückel fit (direct), T = 298.1 K
[4] = parameter of ionic strength dependence, NaCl
[5] = parameter of ionic strength dependence, NaCl, T = 298.1 K
[6] = Davies equation on 0.05 M NaCl data
[7] = Davies equation on 0.15 M NaCl data
[8] = Davies equation on 0.30 M NaCl data
[9] = Davies equation on 0.70 M NaCl data
[10] = Davies equation on 1.00 M NaCl data

## O=C(O)CO [GLY, glycolic acid]
[1]; 0.05 M NaCl, T = 298.1 K
  log β, Zn2+ + L = ZnL (1:1): 2.83±0.02
[1]; 0.15 M NaCl, T = 298.1 K
  log β, Zn2+ + L = ZnL (1:1): 2.10±0.01
[1]; 0.30 M NaCl, T = 298.1 K
  log β, Zn2+ + L = ZnL (1:1): 1.93±0.01
[1]; 0.70 M NaCl, T = 298.1 K
  log β, Zn2+ + L = ZnL (1:1): 1.25±0.03
[1]; 1:1 zinc(II) complex
  stability lower than the equivalent 1:1 zinc(II)-PYR structure: approximately 7 logβ units
[1]; 1.00 M NaCl, T = 298.1 K
  log β, Zn2+ + L = ZnL (1:1): 0.83±0.04
[1]
  decrease in the 1:1 zinc(II) stability constant: ~80%
  decrease of the 1:1 zinc(II) stability constant: 2.19 logβ units
[1]; [3]
  logβ0, Zn2+ + L = ZnL (1:1): 3.018±0.003
[1]; [4]
  C, Zn2+ + L = ZnL (1:1): -1.418±0.006
[2]; 0.05 M NaCl, T = 298.1 K
  log β, H+ + L = HL: 3.55 ± 0.01
[2]; 0.15 M NaCl, T = 298.1 K
  log β, H+ + L = HL: 3.49 ± 0.01
[2]; 0.30 M NaCl, T = 298.1 K
  log β, H+ + L = HL: 3.54 ± 0.01
[2]; 0.70 M NaCl, T = 298.1 K
  log β, H+ + L = HL: 3.44 ± 0.01
[2]; 1.00 M NaCl, T = 298.1 K
  log β, H+ + L = HL: 3.39 ± 0.01
[2]; [3]
  logβ^0, H+ + L = HL: 3.750^b
[2]; [5]
  C, H+ + L = HL: 0.070^b

## Oc1ccccc1O [PYR, pyrocatecholate]
[1]; 0.05 M NaCl, T = 298.1 K
  log β, Zn2+ + 2L = ZnL2: 16.66±0.04
  log β, Zn2+ + L = ZnL (1:1): 9.29±0.03
[1]; 0.15 M NaCl, T = 298.1 K
  log β, Zn2+ + 2L = ZnL2: 15.93±0.02
  log β, Zn2+ + L = ZnL (1:1): 8.89±0.02
[1]; 0.30 M NaCl, T = 298.1 K
  log β, Zn2+ + 2L = ZnL2: 15.32±0.01
  log β, Zn2+ + L = ZnL (1:1): 8.57±0.01
[1]; 0.70 M NaCl, T = 298.1 K
  log β, Zn2+ + 2L = ZnL2: 15.09±0.01
  log β, Zn2+ + L = ZnL (1:1): 8.50±0.01
[1]; 1.00 M NaCl, T = 298.1 K
  log β, Zn2+ + 2L = ZnL2: 14.59±0.01
  log β, Zn2+ + L = ZnL (1:1): 8.23±0.01
[1]; [6]
  log β0 (indirect), ZnL: 9.97±0.03 and 9.97
  log β0 (indirect), ZnL22-: 16.54±0.04 and 16.54
[1]; [7]
  log β0 (indirect), ZnL: 9.85±0.02 and 9.85
  log β0 (indirect), ZnL22-: 15.70±0.02 and 15.70
[1]; [8]
  log β0 (indirect), ZnL: 9.65±0.01 and 9.65
  log β0 (indirect), ZnL22-: 15.03±0.01 and 15.03
[1]; [9]
  log β0 (indirect), ZnL: 9.50±0.01 and 9.50
  log β0 (indirect), ZnL22-: 14.84±0.01 and 14.84
[1]; [10]
  log β0 (indirect), ZnL: 9.05 ±01 and 9.05
  log β0 (indirect), ZnL22-: 14.42±0.01 and 14.42
[1]
  decrease in the 1:1 zinc(II) stability constant: 20%
  decrease of the 1:1 zinc(II) stability constant: 1.67 logβ units
[1]; [3]
  logβ0, Zn2+ + 2L = ZnL2: 17.136±0.007 and 17.14±0.007 and 17.14
  logβ0, Zn2+ + L = ZnL (1:1): 9.90±0.001 and 9.90
[1]; [4]
  C, Zn2+ + 2L = ZnL2: -0.924±0.012
[2]; 0.05 M NaCl, T = 298.1 K
  log β, 2H+ + L = H2L: 21.36 ± 0.07
  log β, H+ + L = HL: 12.16 ± 0.03
[2]; 0.15 M NaCl, T = 298.1 K
  log β, 2H+ + L = H2L: 21.14 ± 0.02
  log β, H+ + L = HL: 11.97 ± 0.01
[2]; 0.30 M NaCl, T = 298.1 K
  log β, 2H+ + L = H2L: 21.06 ± 0.02
  log β, H+ + L = HL: 11.94 ± .01
[2]; 0.70 M NaCl, T = 298.1 K
  log β, 2H+ + L = H2L: 21.04 ± 0.02
  log β, H+ + L = HL: 11.96 ± 0.01
[2]; 1.00 M NaCl, T = 298.1 K
  log β, 2H+ + L = H2L: 20.88 ± 0.02
  log β, H+ + L = HL: 11.79 ± 0.01
[2]; [6]
  log β0 (indirect), H2L: 21.61±0.07
  log β0 (indirect), HL-: 12.50±0.03
[2]; [7]
  log β0 (indirect), H2L: 21.48±0.02
  log β0 (indirect), HL-: 12.45±0.01
[2]; [8]
  log β0 (indirect), H2L: 21.45±0.02
  log β0 (indirect), HL-: 12.48±0.01
[2]; [9]
  log β0 (indirect), H2L: 21.4±0.02
  log β0 (indirect), HL-: 12.46±0.01
[2]; [10]
  log β0 (indirect), H2L: 21.18 ±0.02
  log β0 (indirect), HL-: 12.20±0.01
[2]; [3]
  logβ^0, 2H+ + L = H2L: 21.87±0.001 and 21.874 ± 0.001
  logβ^0, H+ + L = HL: 12.49 ±0.009 and 12.489 ± 0.009
[2]; [5]
  C, 2H+ + L = H2L: 0.296 ± 0.001
  C, H+ + L = HL: 0.183 ± 0.015
